Assay results published in PubChem BioAssay AID588370 (NMMLSC, 2011).
Active and inactive are the calls of the source.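 How the source made its calls: active means cytotoxic compounds, leaving cell viability under 88%; inactive means viability at or above 88%.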

Tested on: U937 viability, trypan blue exclusion, 24 h
Test: cytotoxicity in U937 cells, cytotoxicity control for VLA-4 allosteric modulator project, cell-based, trypan blue (AID 588370)
Conditions: at 10 µM; stronger effect = lower value

| Structure (SMILES) | viability |
| --- | --- |
| CN(C)CCOc1ccc(-c2c(-c3ccccc3)sc3ccccc23)cc1 | 97% (inactive) |
| c1ccc2c(-c3ccc(OCCN4CCCC4)cc3)c(-c3ccsc3)sc2c1 | 93% (inactive) |
| COc1cccc(-c2sc3ccccc3c2-c2ccc(OCCN(C)C)cc2)c1 | 97% (inactive) |
| COc1ccc(-c2sc3ccccc3c2-c2ccc(OCCN(C)C)cc2)cc1 | 96% (inactive) |
| COc1cccc(-c2sc3ccccc3c2-c2ccc(OCCN3CCCC3)cc2)c1 | 84% |
| c1ccc(-c2sc3ccccc3c2-c2ccc(OCCN3CCCC3)cc2)cc1 | 97% (inactive) |
| c1ccc2c(-c3ccc(OCCN4CCCCC4)cc3)c(-c3ccsc3)sc2c1 | 96% (inactive) |
